Test results taken from patent publication US9517265B2, “Methods for the prevention and/or treatment of memory impairment” (The Governing Council of the University of Toronto, priority 2010, dated 2016).
“Also recorded” adds a separate entry of the source. Like-named read-outs stand apart in the source and are kept apart here.

What was measured:
α5GABAA receptors [1] = target: T1, α5GABAA receptors (Mus musculus, UniProt P22723+Q8BHJ7); experiment: Fear conditioning (contextual and cued) after isoflurane anesthesia; assay type: in vivo, C57BL6/J mice; parameters: from tissue; host or cells: brain of living mice (behavioural tests); conditions: for effect on memory deficit after isoflurane (in words): L-655,708 given before isoflurane; for freezing score to context, short-term memory: tested 30 min after training; for freezing score to auditory tone, short-term memory: tested 90 min after conditioning; for freezing score to auditory tone, long-term memory / freezing score to context, long-term memory: tested 2 days after conditioning
T1 sequence (Q8BHJ7 32-463 limits assumed): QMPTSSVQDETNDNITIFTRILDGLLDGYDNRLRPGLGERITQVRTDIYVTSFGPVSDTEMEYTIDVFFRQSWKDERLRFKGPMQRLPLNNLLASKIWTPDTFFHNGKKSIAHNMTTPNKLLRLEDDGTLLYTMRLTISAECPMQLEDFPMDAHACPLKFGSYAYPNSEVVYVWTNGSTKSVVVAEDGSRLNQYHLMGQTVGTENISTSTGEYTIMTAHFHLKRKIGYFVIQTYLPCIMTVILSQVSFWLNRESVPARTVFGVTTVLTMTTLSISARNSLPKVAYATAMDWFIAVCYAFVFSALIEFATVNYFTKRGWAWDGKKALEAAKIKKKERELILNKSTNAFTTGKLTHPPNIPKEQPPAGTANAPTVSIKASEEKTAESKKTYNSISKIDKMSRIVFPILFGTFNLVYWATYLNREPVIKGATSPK
T1 sequence (P63080 26-473 partner): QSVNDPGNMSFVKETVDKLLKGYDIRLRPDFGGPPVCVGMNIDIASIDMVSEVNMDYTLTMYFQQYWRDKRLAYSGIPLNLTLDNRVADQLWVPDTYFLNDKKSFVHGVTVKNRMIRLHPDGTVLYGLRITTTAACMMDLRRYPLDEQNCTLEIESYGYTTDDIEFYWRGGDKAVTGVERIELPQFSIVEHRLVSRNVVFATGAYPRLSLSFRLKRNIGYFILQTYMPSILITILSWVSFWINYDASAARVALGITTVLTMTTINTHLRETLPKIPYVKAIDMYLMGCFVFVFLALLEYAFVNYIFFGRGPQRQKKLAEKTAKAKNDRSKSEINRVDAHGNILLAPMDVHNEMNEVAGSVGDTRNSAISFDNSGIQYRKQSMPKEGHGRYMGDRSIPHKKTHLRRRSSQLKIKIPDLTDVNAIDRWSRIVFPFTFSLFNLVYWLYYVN
T1 sequence (P22723 39-474): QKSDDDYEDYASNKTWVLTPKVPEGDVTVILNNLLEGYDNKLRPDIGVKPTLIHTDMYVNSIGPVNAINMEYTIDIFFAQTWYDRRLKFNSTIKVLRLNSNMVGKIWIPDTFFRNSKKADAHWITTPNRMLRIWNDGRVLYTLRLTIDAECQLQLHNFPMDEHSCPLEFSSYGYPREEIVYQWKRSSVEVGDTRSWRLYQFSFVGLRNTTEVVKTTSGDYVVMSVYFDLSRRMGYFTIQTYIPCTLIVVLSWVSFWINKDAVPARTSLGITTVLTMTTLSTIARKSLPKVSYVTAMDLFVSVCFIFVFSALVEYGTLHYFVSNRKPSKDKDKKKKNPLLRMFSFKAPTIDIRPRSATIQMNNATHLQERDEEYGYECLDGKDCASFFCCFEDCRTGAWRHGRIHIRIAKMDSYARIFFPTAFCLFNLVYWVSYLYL
Procedure: To prevent hypothermia during anesthesia, the floor of the chamber was warmed with a heating blanket. […] The mouse was then either returned to its home cage and allowed to recover for 24 h (24-h groups) or taken to a holding cage in an adjacent room (1-h groups). For continuity and to ensure that the experimenter who performed the fear-conditioning studies was blinded to the treatment group, mice that were allowed to recover for 24 h were placed back in a heated for 45 min before the behavioral experiments. FIGS. 1A and 1B summarize the time course of the experimental procedures. In FIG. 1A, each stage of the experimental paradigm is represented by chronological boxes and cartoons. Relative time is indicated below the boxes (t=0, start of fear conditioning training). The duration of each stage is inset at the bottom left. […] Four groups of isoflurane-treated subjects were used (1 h recovery+L-655,708; 1 h recovery+vehicle; 24 h recovery+L-655,708; 24 h recovery+vehicle). Two oxygen-control group was used (1 h recovery+L-655,708; 1 h recovery+vehicle). 10 min prior to fear conditioning, subjects were examined in the elevated plus maze (EPM). Subjects were tested for short-term memory (STM) and long-term memory (LTM) of the context and tone.
Testing of memory function was performed using two fear-conditioning paradigms. These tests study the ability of mice to learn and remember an association between an aversive stimulus (foot shock) and non-aversive or neutral stimuli (environmental context or an auditory cue). […] Each mouse was introduced to the fear conditioning chamber (50 cm wide×15 cm deep×15 cm high, Process Control Fear Conditioning Monitor GmbH 303410, Technical & Scientific Equipment Systems Inc., Chesterfield, Mo.). The chamber was illuminated with an interior overhead light (50 lx) and was equipped with a stainless steel grid floor connected to a constant-current shock generator. Each mouse was allowed to explore the chamber for 3 min before presentation of a pulsating tone (80 dB, 3600 Hz) which persisted for 30 s. The tone was followed immediately by a mild foot shock (0.7 mA for 0.5 s). The mouse was allowed to explore the chamber for a further 30 s after the shock to study post-shock freezing.
Freezing was scored using Observer software (Noldus Information Technology, Wagoningen, The Netherlands), by an experimenter who was blinded to the treatment groups. Before each new training session, the chamber was cleaned with 70% ethanol to mask and eliminate odors from the previous mouse.
Short-term memory for contextual learning was probed 30 min after training by re-exposed the mice to the same fear conditioning chamber for […]. Long-term memory for contextual learning was studied 2 days (48 h) after conditioning by re-exposing the mice to the conditioning chamber. Short-term memory for cued learning was determined 90 min after training by first allowing the mice to explore a modified chamber scented with 5% acetic acid and containing a plastic floor and cardboard walls and then after 3 min, re-presenting the tone (2-Hz pulsating tone, 80 dB, 3600 Hz) for 3 min. Non-specific freezing was measured during the exploration of the novel chamber prior to presenting the tone. Freezing scores to study recall were measured during presentation of the tone. Long-term memory for cued learning was determined by introducing the mice into the modified chamber and presenting the tone 2 days (48 h) after conditioning.

[2] = Tail-clamp withdrawal assay (MAC of isoflurane) and recovery of righting reflex; assay type: in vivo, mice; conditions: for time to self-right after the immobilizing dose of isoflurane: L-655,708 or vehicle pretreatment, n=9; for immobilizing dose (MAC value) of isoflurane: tail-clamp, mice pretreated with L-655,708 0.7 mg/kg s.c. (row L-655,708) or vehicle (row isoflurane), n=17
Procedure: The MAC value was calculated as the mean value of these two concentrations.

α5GABAA receptors [3] = conditions: 1 mg/kg intraperitoneal; cited from earlier work
Elevated plus maze = assay type: in vivo, mice
Description: Anxiety levels were studied using an elevated plus maze consisting of an acrylic glass apparatus in the shape of a cross (45 cm long×7 cm wide, with a central region of 7 cm×7 cm). Two opposing arms were enclosed with opaque white plastic walls (28 cm high, closed arms), whereas the other two opposing arms were left open (open arms). […] An observer blinded to treatment group recorded the position of each mouse on the maze using Observer software. The time spent in the center and in the open and closed arms were measured over 5 min. In addition, motor activity was quantified to study locomotion.

[4] = cited from earlier work
α5GABAARs = α5GABAARs (Mus musculus, UniProt P22723+Q8BHJ7); experiment: Tonic inhibitory current, whole cell voltage-clamp in cultured hippocampal neurons; assay type: cell-based, mice; parameters: endogenous in cells; host or cells: primary embryonic mouse hippocampal neurons, alone or co-cultured with cortical microglia
Sequence of α5GABAARs (Q8BHJ7 32-463 limits assumed): as the sequence (Q8BHJ7 32-463 limits assumed) above
Sequence of α5GABAARs (P63080 26-473 partner): as the sequence (P63080 26-473 partner) above
Sequence of α5GABAARs (P22723 39-474): as the sequence (P22723 39-474) above

α5GABAA receptors [5] = target: T1, α5GABAA receptors; conditions: for memory performance of Gabra5−/− mice (in words) / effect of the anesthetic on recognition memory, wild-type mice (in words): 24 h after anesthesia
[6] = Isoflurane concentration in brain tissue (gas chromatography) and in expired gas; conditions: after removal from the chamber
Description: Following a designated recovery time, mice were sacrificed by cervical dislocation. The brains were rapidly removed at room temperature and placed in a gas-tight syringe containing polytetrafluoroethylene beads. The whole brain was immediately crushed with two strokes of the plunger and the syringe was then sealed. […] The methods are similar to that described for measurement of inhaled anesthetics in blood.^26

[7] = trained 1 h after isoflurane (1 MAC, 1 h), L-655,708 0.7 mg/kg s.c. or vehicle 10 min before isoflurane
[8] = trained 24 h after isoflurane, L-655,708 0.7 mg/kg s.c. or vehicle before isoflurane
[9] = 1 h Iso, vehicle (row isoflurane) or L-655,708
[10] = 24 h Iso, vehicle (row isoflurane) or L-655,708
[11] = high-dose experiment: isoflurane + vehicle injection (row isoflurane) or + L-655,708 0.7 mg/kg 30 min before training

CCOC(=O)c1ncn2c1[C@@H]1CCCN1C(=O)c1cc(OC)ccc1-2 [L-655,708]
effect on memory deficit after isoflurane (in words) (α5GABAA receptors [1]): completely prevented memory deficits; also recorded: completely reversed the short-term memory deficit for contextual learning; also recorded: prevented the short-term memory deficit to the tone in mice trained 1 h after isoflurane; also recorded: had no effect on auditory recall in mice conditioned 24 h after exposure to isoflurane; also recorded: completely reversed by pretreatment with L-655,708; also recorded: did not reverse the long-term deficit in cued fear conditioning; also recorded: The impairment was prevented by pre-emptive treatment with L-655,708 | effect on memory deficit after isoflurane (in words) (α5GABAA receptors [1]; listed as L-655-708): had no effect on freezing in the oxygen-treated mice | freezing score to context, short-term memory (α5GABAA receptors [1]; oxygen-treated mice): 80.1±6.4% | freezing score to context, short-term memory (α5GABAA receptors [1]; [7]): 75.5±8.6% | freezing score to context, short-term memory (α5GABAA receptors [1]; [8]): 81.9±5.6% | freezing score to auditory tone, short-term memory (α5GABAA receptors [1]; trained 1 h after isoflurane): 49.1+8.8% | freezing score to auditory tone, long-term memory (α5GABAA receptors [1]; trained 1 h after isoflurane): 41.7±7.3% | freezing score to context, long-term memory (α5GABAA receptors [1]; trained 1 h after isoflurane): 72.3±4.9% | freezing score to context, long-term memory (α5GABAA receptors [1]; trained 24 h after isoflurane): 75.2±8.3% | time to self-right after the immobilizing dose of isoflurane [2]: 151 ± 27 s | effect on MAC of isoflurane (in words) ([2]; mouse, in vivo): did not change the MAC value for isoflurane | immobilizing dose (MAC value) of isoflurane [2]: 1.33±0.02 | receptor occupancy of the α5GABAA receptor (α5GABAA receptors [3]): 64% | total number of visits to the middle area (Elevated plus maze; [9]): 17.3±7.0 | total number of visits to the middle area (Elevated plus maze; 1 h O2): 19.5±8.5 | total number of visits to the middle area (Elevated plus maze; [10]): 13.6±7.1 | half-life ([4]; rat, in vivo): 30 min | time of peak ([4]; rat, in vivo): 0.25 h | brain versus plasma concentrations (in words) ([4]; subcutaneous injection): concentrations in the brain mimic those in the plasma | inhibition at 0.02 µM (α5GABAARs; L-655,708 20 nM, n=11, read-out: inhibition of the IL-1β-enhanced tonic current): 66.1% | IL-1β-modulated tonic current (α5GABAARs; L-655,708 20 nM, n=12): 69.2±4.4 % of control | effect on the tonic current (in words) (α5GABAARs; cultured hippocampal neurons): the tonic current is selectively inhibited; also recorded: reverses enhancement of the tonic current by the inhaled anaesthetics isoflurane and desflurane; also recorded: reverses the sevoflurane-induced increase in tonic inhibitory conductance generated by GABAA receptors | memory performance of Gabra5−/− mice (in words) (α5GABAA receptors [5]): did not affect the memory performance of Gabra5−/− mice | discrimination ratio, short-term memory (α5GABAA receptors [5]; Gabra5−/− mice, L-655,708 0.70 mg/kg i.p. 10 min before isoflurane): 0.62±0.05 | discrimination ratio, short-term memory (α5GABAA receptors [5]; Gabra5−/− mice, L-655,708 0.70 mg/kg i.p. 10 min before vehicle gas): 0.64±0.05 | effect on isoflurane-induced recognition memory deficit (in words) (α5GABAA receptors [5]; L-655,708 0.35 mg/kg 24 h after isoflurane, 30 min before training): restored normal memory performance in groups that were exposed to isoflurane; also recorded: fully reversed short-term memory deficits; also recorded: completely reversed the deficit in recognition memory; also recorded: reverses memory deficits when administered 24 h after exposure to the anesthetic isoflurane; also recorded: fully reversed by L-655,708 | effect on isoflurane-induced recognition memory deficit (in words) (α5GABAA receptors [5]; L-655,708 0.7 mg/kg 24 h after isoflurane, 30 min before training): failed to reverse the memory deficit in isoflurane-treated mice | prevention of recognition memory deficit (in words) (α5GABAA receptors [5]; L-655,708 0.7 mg/kg before isoflurane): preferred the novel object | discrimination ratio, short-term memory (α5GABAA receptors [5]; [11]): 0.54±0.05 | discrimination ratio, short-term memory (α5GABAA receptors [5]; isoflurane + L-655,708 0.35 mg/kg i.p. 23.5 h after anesthesia, 30 min before training, n=11): 0.68±0.03 | exploratory behavior during training (in words) (α5GABAA receptors [5]; mouse, in vivo): did not influence the amount of time that mice spent with both objects

FC(F)OC(Cl)C(F)(F)F (centres unmarked) [isoflurane]
mean freezing score, short-term contextual fear conditioning (α5GABAA receptors [1]; independent cohort of 14 mice, 24 h after isoflurane): 32.8% | freezing score to context, short-term memory (α5GABAA receptors [1]; [7]): 54.6±5.9% | freezing score to context, short-term memory (α5GABAA receptors [1]; [8]): 51.6±8.0% | freezing score to auditory tone, short-term memory (α5GABAA receptors [1]; trained 1 h after isoflurane): 35.7±6.43% | freezing score to auditory tone, short-term memory (α5GABAA receptors [1]; trained 24 h after isoflurane): 49.1+8.8% | freezing score to auditory tone, long-term memory (α5GABAA receptors [1]; trained 1 h after isoflurane): 21.8±23.1% | freezing score to context, long-term memory (α5GABAA receptors [1]; trained 1 h after isoflurane): 36.4±26.9% | freezing score to auditory tone, long-term memory (α5GABAA receptors [1]; trained 24 h after isoflurane): 41.2±31.2% | freezing score to context, long-term memory (α5GABAA receptors [1]; trained 24 h after isoflurane): 48.9±8.6% | time to self-right after the immobilizing dose of isoflurane [2]: 153 ± 26 s | immobilizing dose (MAC value) of isoflurane [2]: 1.33±0.02 | time until isoflurane in expired gas is undetectable [6]: ≤ 7 min | total number of visits to the middle area (Elevated plus maze; [9]): 19.9±4.6 | total number of visits to the middle area (Elevated plus maze; [10]): 18.1±5.3 | anxiety in the elevated plus maze (in words) (Elevated plus maze; mouse, in vivo): neither isoflurane, nor L-655,708 had any effect on anxiety on their own | effect of the anesthetic on recognition memory, wild-type mice (in words) (α5GABAA receptors [5]): failed to recognize the familiar object and exhibited no preference for the novel object | memory performance of Gabra5−/− mice (in words) (α5GABAA receptors [5]): did not cause significant impairment of memory performance in Gabra5−/− mice | effect of the anesthetic on recognition memory, wild-type mice (in words) (α5GABAA receptors [5]; listed as Isoflurane): demonstrated normal working memory | time spent exploring both objects during training (α5GABAA receptors [5]; 72 h after isoflurane): 46.65 ± 6.57 s | discrimination ratio, short-term memory (α5GABAA receptors [5]; 72 h after isoflurane, n=10): 0.60±0.04 | discrimination ratio, short-term memory (α5GABAA receptors [5]; Gabra5−/− mice, 24 h after isoflurane): 0.62±0.05 | time by which short-term memory deficits resolved (α5GABAA receptors [5]; after isoflurane 1.3% 1 h): ≤ 72 h | discrimination ratio, short-term memory (α5GABAA receptors [5]; [11]): 0.54±0.04 | discrimination ratio, short-term memory (α5GABAA receptors [5]; prevention experiment, wild-type, isoflurane + vehicle injection, n=11): 0.53±0.05 | time spent exploring sample objects during training (α5GABAA receptors [5]; short-term memory experiment, 24 h after isoflurane): 62.3 ± 9.44 s | discrimination ratio, working memory (α5GABAA receptors [5]; tested 1 min after training, 24 h after isoflurane 1.3% 1 h, n=10): 0.67±0.04 | discrimination ratio, short-term memory (α5GABAA receptors [5]; tested 1 h after training, 24 h after isoflurane, vehicle injection, wild-type, n=31): 0.51±0.03 | time spent exploring both sample objects during training (α5GABAA receptors [5]; working memory experiment, 24 h after isoflurane): 49.28 ± 9.60 s
